According to patent EP3581565A1, “PHENYL BENZYL ETHER DERIVATIVE AND PREPARATION METHOD AND APPLICATION THEREOF” (Beijing Zhibo Bio-Medical Technology Co., Ltd., priority 2018, dated 2019):

Assays:
[1] = target: T1, Aβ1-42 aggregates (Homo sapiens, UniProt P05067); experiment: In-vitro competitive binding experiment (Ki determination) with Aβ1-42 aggregates
T1 construct: Preparing receptor Aβ1-42 proteins according to the existing method
Method: 4, the compounds are separated after balancing, and the inhibition constant (Ki) is calculated by determining radioactivity.
• (1) Preparing 41 of PBS (0.2M) buffer solution with pH=7.4; • (2) Preparing radioligand [^125I]

[2] = logD of labeled ligands; assay type: physicochemical

T1 sequence (P05067 672-713 limits assumed): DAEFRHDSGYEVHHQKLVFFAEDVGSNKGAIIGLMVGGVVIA

Ki [1] [nM] | logD [2] | SMILES
 | [^125I]4 (logD = 4.00± 0.08) | COc1ccc(OCc2ccc([125I])cc2)cc1 [[^125I]4]
 | [^125I]22(logD = 2.89± 0.09) | CN(C)c1ccc(OCc2ccc([125I])cc2)cc1 [[^125I]22]
 | [^125I]24 (logD = 4.16± 0.29) | COc1ccc(COc2ccc([125I])cc2)cc1 [[^125I]24]
 | [^125I]31a(logD = 3.96± 0.22) | FCCOc1ccc(OCc2ccc([125I])cc2)cc1 [[^125I]31a]

The remaining lines, values behind:

SMILES | Ki [1] [nM] | logD [2]
Clc1ccc(OCc2ccc(I)cc2)cn1 [Compound 55, 2-chloro-5-((4-iodobenzyl)oxy) pyridine] | 880 ± 72.4 | 
Brc1ccc(OCc2ccc(I)cc2)cn1 [Compound 57, 2-bromo-5-((4-iodobenzyl)oxy) pyridine] | 163 ± 23 | 
COc1ccc(OCc2ccc(OCC[18F])cc2)cc1 [[^18F]44a] |  | [^18F]44a(logD = 3.05 ± 0.08)
COc1ccc(COc2ccc(OCC[18F])cc2)cc1 [[^18F] 53a] |  | [^18F] 53a (logD= 3.65 ±0.04)
